Assay results as given in patent publication US5654116A, “Hologram” (priority 1993, dated 1997).

Columns and labels:
[1] = Skin irritativeness, SPI value (skin irritation value of epoxy); conditions: for Toxicity Skin Irritativeness (SPI · %): ingredient of the adhesive of Example 5, Table 1
[2] = Toxicity of adhesive ingredients, LD 50 (Table 1); assay type: in vivo; conditions: ingredient of the adhesive of Example 5, Table 1

Molecule	Toxicity Skin Irritativeness (SPI · %) [1]	skin irritativeness ([1]; result in words)	Toxicity LD 50 [2]
O=C1OC(=O)C2CC=CCC12 (stereo not shown) [alicyclic acid anhydride II, Tetrahydrophthalic anhydride]	3 SPI · %	low skin irritativeness	
hydrogenated bisphenol A type epoxy [alicyclic epoxy]	3 SPI · %		3900 mg/kg
